This passage reports IC50 results from patent US20100256104A1, “NOVEL AMIDE COMPOUNDS” (ASTRAZENECA R&D, priority 2009, published 2010).

Molecules are shown by their SMILES.

In the assay the target is T1, recombinant human GR (Homo sapiens, UniProt P04150).
T1 construct: purchased Panvera/Invitrogen P2812 (kit P2893)
T1 sequence (P04150 1-777): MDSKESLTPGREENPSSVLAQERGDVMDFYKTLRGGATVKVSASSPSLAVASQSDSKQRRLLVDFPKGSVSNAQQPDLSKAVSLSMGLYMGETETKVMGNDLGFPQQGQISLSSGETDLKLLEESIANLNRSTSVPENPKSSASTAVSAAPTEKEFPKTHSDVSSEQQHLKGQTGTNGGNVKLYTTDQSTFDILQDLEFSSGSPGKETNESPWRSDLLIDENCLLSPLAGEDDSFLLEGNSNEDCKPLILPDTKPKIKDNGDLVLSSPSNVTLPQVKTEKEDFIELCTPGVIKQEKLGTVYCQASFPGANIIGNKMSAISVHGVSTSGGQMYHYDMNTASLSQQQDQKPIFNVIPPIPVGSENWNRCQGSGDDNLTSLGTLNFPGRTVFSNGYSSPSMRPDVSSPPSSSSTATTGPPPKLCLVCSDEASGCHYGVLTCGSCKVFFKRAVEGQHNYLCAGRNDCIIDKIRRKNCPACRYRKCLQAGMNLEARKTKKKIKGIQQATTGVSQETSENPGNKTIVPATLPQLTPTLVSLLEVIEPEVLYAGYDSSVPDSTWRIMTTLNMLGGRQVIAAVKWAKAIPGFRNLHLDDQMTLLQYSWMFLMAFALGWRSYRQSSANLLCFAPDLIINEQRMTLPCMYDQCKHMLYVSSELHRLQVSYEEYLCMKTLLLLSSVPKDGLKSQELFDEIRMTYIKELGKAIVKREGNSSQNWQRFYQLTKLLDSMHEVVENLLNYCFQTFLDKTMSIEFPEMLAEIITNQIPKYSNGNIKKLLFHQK
Description: Human Glucocorticoid Receptor (GR) Assay, fluorescence polarization competition with GS Red tracer. Conditions: 2 hours at room temperature, 100% control 10 μM Dexamethasone, XLfit model 205, read-out: Inhibition of GR binding, IC50. How it is done:
Human Glucocorticoid Receptor (GR) Assay The assay is based on a commercial kit from Panvera/Invitrogen (Part number P2893). The assay technology is fluorescence polarization. The kit utilises recombinant human GR (Panvera, Part number P2812), a Fluoromone™ labelled tracer (GS Red, Panvera, Part number P2894) and a Stabilizing Peptide 10X (Panvera, Part number P2815). The GR and Stabilizing Peptide reagents are stored at −70° C. while the GS Red is stored at −20° C. Also included in the kit are 1M DTT (Panvera, Part number P2325, stored at −20° C.) and GR Screening buffer 10X (Panvera, Part number P2814, stored at −70° C. initially but once thawed stored at room temperature). Avoid repeated freeze/thaws for all reagents. The GR Screening buffer 10X comprises 100 mM potassium phosphate, 200 mM sodium molybdate, 1 mM EDTA and 20% DMSO. Test compounds (1 μL) and controls (1 μL) in 100% DMSO were added to black polystyrene 384-well plates (Greiner low volume black flat-bottom, part number 784076). 0% control was 100% DMSO and 100% control was 10 μM Dexamethasone. Background solution (8 μL; assay buffer 10X, Stabilizing Peptide, DTT and ice cold MQ water) was added to the background wells. GS Red solution (7 μL; assay buffer 10X, Stabilizing Peptide, DTT, GS Red and ice cold water) was added to all wells except background wells. GR solution (7 μL; assay buffer 10X, Stabilizing Peptide, DTT, GR and ice cold water) was added to all wells. The plate was sealed and incubated in a dark at room temperature for 2 hours. The plate was read in an Analyst plate reader (LJL Biosystems/Molecular Devices Corporation) or other similar plate reader capable of recording fluorescence polarization (excitation wavelength 530 nm, emission wavelength 590 nm and a dichroic mirror at 561 nm).

Regarding `CCNC(=O)c1cccc(-n2ncc3c2C=C2CC[C@H]4[C@@H]5C[C@@H](C)[C@](OC(=O)COC)(C(=O)SCF)[C@@]5(C)C[C@H](O)[C@]4(F)[C@@]2(C)C3)c1` [Example 27, (1R,2R,3aS,3bS, 10aS,10bR,11S,12aS)-7-[3-(ethylcarbamoyl)phenyl]-10b-fluoro-1-{[(fluoro-methyl)sulfanyl]-carbonyl}-11-hydroxy-2,10a,12a-trimethyl-1,2,3,3a, 3b,4,5,7,10,10a,- 10b,11,12,12a-tetradecahydrocyclo-penta[5,6]naphtho [1,2-f]indazol-1-yl methoxyacetate], the 50% inhibitory concentration (IC50) (commonly the point on the concentration scale where inhibition reaches its midpoint) is 0.47 nM.

Turning to `CNC(=O)c1cccc(-n2ncc3c2C=C2CC[C@H]4[C@@H]5C[C@@H](C)[C@](OC(=O)COC)(C(=O)SCF)[C@@]5(C)C[C@H](O)[C@]4(F)[C@@]2(C)C3)c1` [Example 28, 1R,2R,3aS,3bS, 10aS,10bR,11S,12aS)-10b-fluoro-1-{[(fluoromethyl)sulfanyl] carbonyl}-11-hydroxy-2,10a,12a-trimethyl-7[3-(methylcarbamoyl)phenyl]-1,2,3,3a,3b,4,5,7,10, 10a,10b,11,12,12a-tetradecahydrocyclo-penta[5,6]naphtho [1,2-f]indazol-1-yl methoxyacetate], the IC50 is 2.3 nM. Under `COCC(=O)O[C@]1(C(=O)SCF)[C@H](C)C[C@H]2[C@@H]3CCC4=Cc5c(cnn5-c5cccc(C(=O)N[C@H](C)C(N)=O)c5)C[C@]4(C)[C@@]3(F)[C@@H](O)C[C@@]21C` [Example 29, (1R,2R,3aS,3bS, 10aS,10bR,11S,12aS)-7-(3-{[(1R)-2-amino-1-methyl-2-oxoethyl]carbamoyl}phenyl)-10b-fluoro-1-{[(fluoromethyl)-sulfanyl]carbonyl}-11-hydroxy-2,10a,12a-trimethyl-1,2,3,3a,3b,4,5,7,10, 10a,10b,11,12,12a-tetradecahydrocyclo-penta[5,6]naphtho [1,2-f]indazol-1-yl methoxyacetate] stands 2.6 nM; under `C[C@H]1C[C@@H]2[C@H]([C@@H](O)C[C@@]3(C)[C@H]2CC[C@]3(OC(=O)[C@H]2CCCO2)C(=O)SCF)[C@@]2(C)Cc3cnn(-c4cccc(C(=O)NCC(N)=O)c4)c3C=C12` [Example 30, (1R,3aS,3bS,5S, 10aR,10bS,11S,12aS)-7-{3-[(2-amino-2-oxoethyl)carbamoyl]phenyl}-1-{[(fluoromethyl)sulfanyl]carbonyl}-11-hydroxy-5,10a,12a-trimethyl-1,2,3,3a,3b,4,5,7,10, 10a,10b,11,12,12a-tetradecahydrocyclo-penta[5,6]naphtho [1,2-f]indazol-1-yl (2R)-tetrahydrofuran-2-carboxylate], 2.2 nM. For `C[C@H]1C[C@@H]2[C@H]([C@@H](O)C[C@@]3(C)[C@H]2CC[C@]3(OC(=O)C2CC2)C(=O)SCF)[C@@]2(C)Cc3cnn(-c4cccc(C(=O)NCC(N)=O)c4)c3C=C12` [Example 31, (1R,3aS,3bS,5S, 10aR,10bS,11S,12aS)-7-{3-[(2-amino-2-oxoethyl)carbamoyl]phenyl}-1-{(fluoromethyl)sulfanyl] carbonyl}-11-hydroxy-5,10a,12a-trimethyl-1,2,3,3a,3b,4,5,7,10, 10a,10b,11,12,12a-tetradecahydrocyclo-penta[5,6]naphtho [1,2-f]indazol-1-yl cyclopropanecarboxylate], the IC50 is 1.2 nM.

For the molecule `CCC(=O)O[C@]1(C(=O)SCF)CC[C@H]2[C@@H]3CCC4=Cc5c(cnn5-c5cccc(C(=O)N[C@H](C)C(N)=O)c5)C[C@]4(C)[C@@]3(F)[C@@H](O)C[C@@]21C` [Example 32, (1R,3aS,3bS,10aS, 10bR,11S,12aS)-7-(3-{[(1R)-2-amino-1-methyl-2-oxoethyl]carbamoyl}phenyl)-10b-fluoro-1-{[(fluoromethyl)-sulfanyl]carbonyl}-11-hydroxy-10a,12a-dimethyl-1,2,3,3a,3b,4,5,7,10, 10a,10b,11,12,12a-tetradecahydrocyclo-penta[5,6]naphtho [1,2-f]indazol-1-yl propanoate], the half-inhibitory concentration (IC50) was 2.5 nM. `CCC(=O)O[C@]1(C(=O)SCF)CC[C@H]2[C@@H]3CCC4=Cc5c(cnn5-c5cccc(C(=O)NC)c5)C[C@]4(C)[C@@]3(F)[C@@H](O)C[C@@]21C` [Example 33, (1R,3aS,3bS,10aS, 10bR,11S,12aS)-10b-fluoro-1-{[(fluoromethyl)sulfanyl]carbonyl}-11-hydroxy-10a,12a-dimethyl-7[3-(methylcarbamoyl)phenyl]-1,2,3,3a,3b,4,5,7,10, 10a,10b,11,12,12a-tetradecahydrocyclo-penta[5,6]naphtho [1,2-f]indazol-1-yl propanoate]: the 50% inhibitory concentration (IC50) is 5.2 nM. As for `CCC(=O)O[C@]1(C(=O)SCF)CC[C@H]2[C@@H]3CCC4=Cc5c(cnn5-c5cccc(C(=O)N(C)CC(N)=O)c5)C[C@]4(C)[C@@]3(F)[C@@H](O)C[C@@]21C` [Example 34, (1R,3aS,3bS,10aS, 10bR,11S,12aS)-7-{3-[(2-amino-2-oxoethyl)(methyl)carbamoyl]phenyl}-10b-fluoro-1-{[(fluoromethyl)sulfanyl]carbonyl}-11-hydroxy-10a,12a-dimethyl-1,2,3,3a,3b,4,5,7,10, 10a,10b,11,12,12a-tetradecahydrocyclo-penta[5,6]naphtho [1,2-f]indazol-1-yl propanoate], the IC50 turned out to be 3.8 nM. The value for `CCC(=O)O[C@]1(C(=O)SCF)CC[C@H]2[C@@H]3CCC4=Cc5c(cnn5-c5cccc(C(=O)N[C@@H](C)C(N)=O)c5)C[C@]4(C)[C@@]3(F)[C@@H](O)C[C@@]21C` [Example 35, (1R,3aS,3bS,10aS, 10bR,11S,12aS)-7-(3-{[(1S)-2-amino-1-methyl-2-oxoethyl]carbamoyl}phenyl)-10b-fluoro-1-{[(fluoromethyl)sulfanyl]carbonyl}-11-hydroxy-10a,12a-dimethyl-1,2,3,3a,3b,4,5,7,10,10a, 10b,11,12,12a-tetradecahydrocyclo-penta[5,6]naphtho [1,2-f]indazol-1-yl propanoate] was 6.5 nM; that for `CCC(=O)O[C@]1(C(=O)SCF)CC[C@H]2[C@@H]3CCC4=Cc5c(cnn5-c5cccc(C(=O)NCC(=O)NC)c5)C[C@]4(C)[C@@]3(F)[C@@H](O)C[C@@]21C` [Example 36, (1R,3aS,3bS,10aS, 10bR,11S,12aS)-10b-fluoro-1-{[(fluoromethyl)sulfanyl]carbonyl}-11-hydroxy-10a,12a-dimethyl-7-(3-{[2-(methylamino)-2-oxoethyl]carbamoyl}phenyl)-1,2,3,3a,3b,4,5,7,10,10a, 10b,11,12,12a-tetradecahydrocyclo-penta[5,6]naphtho [1,2-f]indazol-1-yl propanoate] was 0.84 nM; that for `CCC(=O)O[C@]1(C(=O)SCF)CC[C@H]2[C@@H]3C[C@H](C)C4=Cc5c(cnn5-c5cccc(C(=O)NCC(N)=O)c5)C[C@]4(C)[C@H]3[C@@H](O)C[C@@]21C` [Example 37, (1R,3aS,3bS,5S,10aR, 10bS,11S,12aS)-7-{3-[(2-amino-2-oxoethyl)carbamoyl]phenyl}-1-{[(fluoromethyl)sulfanyl]carbonyl}-11-hydroxy-5,10a, 12a-trimethyl-1,2,3,3a,3b,4,5,7,10, 10a,10b,11,12,12a-tetradecahydrocyclo-penta[5,6]naphtho [1,2-f]indazol-1-yl propanoate] was 7.1 nM.
